Structures can show the parent of a compound that is named as a salt.
Tests used:
[1] = system: Insulin; assay: Plasma insulin by radioimmunoassay in GK diabetic rats (Example 2); type: in vivo, rat; settings: for Fasting Insulin: Mean ± STD, DC 22.5 mg/kg BW, Metformin 34 mg/kg BW
Description: (§1) The 36 GK rats were divided into 4 groups based on body weight (BW) and plasma glucose level. […] All animals were treated at 10:00 for 20 days. […] Plasma glucose concentrations were determined by Glucotrendr2 equipment (Roche Diagnostics, Basel, Switzerland). Plasma insulin concentrations were determined by radioimmunoassay (Insulin RIA Kit, NO:0410, purchased from Shanghai Radioimmunoassay Research Institution). The effects on plasma glucose level are shown in Table 4, the effects on plasma insulin and adiponectin levels are shown in Table 5, and the effects on different tissues are shown in Table 6. The “p” value is the comparison with the control group.

[2] = system: diabetic patients; assay: Open-label randomized trial in patients with diabetes type II (Example 3); type: in vivo, human
Description: The cysteamine alone (DC) group was treated with 540 mg/day of cysteamine hydrochloride.

[3] = system: adiponectin; assay: Adiponectin level in GK diabetic rats (Example 2); type: in vivo, rat; settings: for Adiponectin: Mean ± STD, DC 22.5 mg/kg BW, Metformin 34 mg/kg BW
Description: The 36 GK rats were divided into 4 groups based on body weight (BW) and plasma glucose level. Group 1 (control, n=10) was treated with saline by gavage (2 ml/rat) Group 2 (DC, n=6) was treated with cysteamine hydrochloride by gavage (22.5 mg/kg BW in 2 ml tap water); Group 3 (Metformin, Met, n=10) was treated with Metformin by gavage (34 mg/kg BW in 2 ml tap water); Group 4 (Met+DC, n=10) was treated with Metformin 34 mg/kg BW/day in 2 ml tap water for the first 10 days and then was treated with both cysteamine hydrochloride 22.5 mg/kg BW plus Metformin 34 mg/kg BW in 2 ml tap water for the second 10 days. All animals were treated at 10:00 for 20 days.
(§2) The four groups of animals were kept in the same room (temp 23±3° C., relative humidity 65±1%) in different cages with wire mesh bottoms to reduce coprophagia throughout the experiment. The rats were subjected to fasting overnight from 10:00 pm to 09:30 of the following day before being subjected to a glucose tolerance test. The rats were treated with glucose 2 g/kg BW in 2 ml tap water at 09:30 for the glucose tolerance test and the blood was collected from the tail vein at 0.5, 1, 2, and 3 hours after glucose injection. Plasma glucose concentrations were determined by Glucotrendr2 equipment (Roche Diagnostics, Basel, Switzerland). Plasma insulin concentrations were determined by radioimmunoassay (Insulin RIA Kit, NO:0410, purchased from Shanghai Radioimmunoassay Research Institution). […] The “p” value is the comparison with the control group.

[4] = system: Goto-Kakizaki Wistar rats (GK rats); assay: Oral glucose tolerance test and starving plasma glucose in GK rats (Example 1); type: in vivo, rat
Description: Nineteen male Goto-Kakizaki Wistar rats (GK rats) with weights of 300±20 g were kept in steel cages, 3-4 rats per cage. The cages were changed every two days. Indoor temperature and relative humidity was kept at 23±3° C. and 65±1% respectively. Feed and drinking water was provided. GK rats were permitted a one-month period for adaptation.
One day prior to experimentation, at 17:00, all of the feed was removed from all groups, but not the drinking water. On the second day, at 09:30, starving plasma glucose was measured for all GK rats. At 10:00, glucose tolerance test (2 g/kg BW) was performed and the plasma glucose level was measured as well for all GK rats. On the third day, the GK rats of the control group were orally administered a saline solution (2 ml/rat) and the GK rats in treatment I and II groups were orally administered a solution of Metformin (17 mg/kg body weight (BW), 2 ml once pre day at 09:30). This regimen was performed for the following several days. On the ninth day, starving plasma glucose was measured and oral glucose tolerance test was performed again for all GK rats in all groups.
On the tenth day, the regimen for the GK rats in the treatment II group was changed to an oral administration of Metformin with cysteamine hydrochloride (Metformin 17 mg/kg BW, cysteamine hydrochloride 15 mg/kg BW) for the following 6 days, while the regimen for the control group and the treatment I group remained unchanged. This regimen was performed for six days.
Six days following the change in regimen, starving plasma glucose was measured and glucose tolerance tests were performed, and blood and tissue samples were collected (liver, duodenum, pancreas gland, fat, and muscle) for all GK rats in all groups. Blood samples were stored at 4° C. for three hours and centrifuged for ten minutes at 3500 rpm. Then, the serum was collected and stored at −20° C. Tissue samples were placed in liquid nitrogen once collected and then stored in −80° C.
The glucose tolerance tests that were performed included the steps of starving the GK rats overnight. Next day at 09:30, starving plasma glucose was measured. At 10:00, oral administration of a glucose solution (2 g/kg BW) was performed. Blood samples were collected via tail vein at 0, 0.5, 1, 2, and 3 hours and then performed with the plasma glucose testing equipment.

[5] = system: GK diabetic rats; assay: Glucose tolerance test in GK diabetic rats (Example 2); type: in vivo, rat; settings: for glucose levels in glucose tolerance test (in words): GK diabetic rats; for Glucose tolerance test, plasma glucose, Fasting / Glucose tolerance test, plasma glucose, 0.5 hour / Glucose tolerance test, plasma glucose, 1 hour / Glucose tolerance test, plasma glucose, 2 hours / Glucose tolerance test, plasma glucose, 3 hours: Mean ± STD, DC 22.5 mg/kg BW, Metformin 34 mg/kg BW by gavage; for Glucose tolerance test, plasma glucose, Fasting: 20 days (combination in second 10 days); for Glucose tolerance test, plasma glucose, 0.5 hour / Glucose tolerance test, plasma glucose, 1 hour / Glucose tolerance test, plasma glucose, 2 hours / Glucose tolerance test, plasma glucose, 3 hours: after glucose 2 g/kg BW, 20 days
Description: Food and water were provided ad libitum.
The 36 GK rats were divided into 4 groups based on body weight (BW) and plasma glucose level. […] All animals were treated at 10:00 for 20 days.
as §2

[6] = system: glucose transporter (glut4); assay: Glucose transporter (glut4) expression in tissues of GK diabetic rats (Example 2); type: in vivo, rat; settings: for expression of total glut4 in liver, muscles, adipocytes (in words): GK rats; for glut4 expression, adipocyte, fold changes compared with control level / glut4 expression, liver, fold changes compared with control level / glut4 expression, muscle, fold changes compared with control level: Mean ± STD, GK diabetic rats
Description: as §1

[7] = late-phase, Metformin 17 mg/kg BW, cysteamine hydrochloride 15 mg/kg BW oral for 6 days
[8] = mid-phase, Treatment I group, 6 days oral Metformin 17 mg/kg BW, glucose 2 g/kg BW
[9] = mid-phase, Treatment II group (Metformin 17 mg/kg BW only, before cysteamine hydrochloride was added)
[10] = cysteamine hydrochloride 540 mg/day, two months
[11] = pre-treatment minus post-treatment

CN(C)C(=N)N=C(N)N [Metformin]
insulin levels (in words) [1]: decreased, but not statistically significant
Fasting Insulin [1]: 18.75 ± 3.98 IU/L
insulin-like growth factor 1 (IGF1) (in words) [2]: decrease
adiponectin (in words) [3]: not
Adiponectin [3]: 3917 ± 416 ng/mL
duodenal plasma glucose levels and insulin resistance (in words) ([4]; GK rats, oral administration): to some extent, lowers
Glucose tolerance test, plasma glucose, 0.5 hour [4, 7]: 12.98
Glucose tolerance test, plasma glucose, 1 hour [4, 7]: 13.42
Glucose tolerance test, plasma glucose, 2 hours [4, 7]: 8.6
Glucose tolerance test, plasma glucose, 3 hours [4, 7]: 6.67
Glucose tolerance test, plasma glucose, Starving [4, 7]: 4.75
Glucose tolerance test, plasma glucose, Starving ([4]; mid-phase, Treatment I group, 6 days oral Metformin 17 mg/kg BW): 4.98
Glucose tolerance test, plasma glucose, 0.5 hour [4, 8]: 15.68
Glucose tolerance test, plasma glucose, 1 hour [4, 8]: 15.93
Glucose tolerance test, plasma glucose, 2 hours [4, 8]: 10.55
Glucose tolerance test, plasma glucose, 3 hours [4, 8]: 8.5
Glucose tolerance test, plasma glucose, 0.5 hour [4, 9]: 15.65
Glucose tolerance test, plasma glucose, 1 hour [4, 9]: 15.8
Glucose tolerance test, plasma glucose, 2 hours [4, 9]: 10.55
Glucose tolerance test, plasma glucose, 3 hours [4, 9]: 8.37
Glucose tolerance test, plasma glucose, Starving [4, 9]: 5.03
glucose levels in glucose tolerance test (in words) [5]: statistically significantly different
Glucose tolerance test, plasma glucose, Fasting [5]: 5.53 ± 0.53 mmol/L
Glucose tolerance test, plasma glucose, 0.5 hour [5]: 15.24 ± 1.34 mmol/L
Glucose tolerance test, plasma glucose, 1 hour [5]: 13.98 ± 0.95 mmol/L
Glucose tolerance test, plasma glucose, 2 hours [5]: 9.62 ± 0.83 mmol/L
Glucose tolerance test, plasma glucose, 3 hours [5]: 7.71 ± 1.37 mmol/L
expression of total glut4 in liver, muscles, adipocytes (in words) [6]: increased, but not significantly
glut4 expression, adipocyte, fold changes compared with control level [6]: 2.14 ± 1.39 fold
glut4 expression, liver, fold changes compared with control level [6]: 2.43 ± 1.85 fold
glut4 expression, muscle, fold changes compared with control level [6]: 1.38 ± 0.67 fold

NCCS [cysteamine hydrochloride]
insulin levels (in words) [1]: did not affect
Fasting Insulin [1]: 22.46 ± 2.65 IU/L
C peptide (CP) (in words) [2]: decreases significantly
HOMA (Homeostasis Model Assessment) (in words) [2]: decreases significantly
blood uric acid (UA) levels (in words) [2]: decreases significantly
fasting insulin (FINS) (in words) [2]: decreases significantly
insulin-like growth factor 1 (IGF1) (in words) [2]: decreases significantly
microalbuminuria (in words) [2]: obvious but not statistically significantly
24 h Microalbuminuria, Post-treatment [2, 10]: 30.97 ± 25.12
FBS (fasting blood sugar), Post-treatment [2, 10]: 8.21 ± 2.43
FCP (C peptide), Post-treatment [2, 10]: 557 ± 119
FINS (fasting insulin), Post-treatment [2, 10]: 13.25 ± 6.36
HOMA (Homeostasis Model Assessment), Post-treatment [2, 10]: 5.43 ± 3.19
IGF, Post-treatment [2, 10]: 44.37 ± 7.28
UA (blood uric acid), Post-treatment [2, 10]: 359 ± 60.16
24 h Microalbuminuria, Paired Difference [2, 11]: 11.77 ± 40.73
FBS, Paired Difference [2, 11]: −0.69 ± 2.11
FCP, Paired Difference [2, 11]: 182 ± 164
FINS, Paired Difference [2, 11]: 22.14 ± 19.39
HOMA, Paired Difference [2, 11]: 6.51 ± 4.94
IGF, Paired Difference [2, 11]: 4.99 ± 5.12
UA, Paired Difference [2, 11]: 29.5 ± 37.87
adiponectin (in words) [3]: significantly increased
Adiponectin [3]: 4318 ± 590 ng/mL
glucose levels in glucose tolerance test (in words) [5]: did not affect
Glucose tolerance test, plasma glucose, Fasting [5]: 5.80 ± 0.36 mmol/L
Glucose tolerance test, plasma glucose, 0.5 hour [5]: 16.68 ± 1.1 mmol/L
Glucose tolerance test, plasma glucose, 1 hour [5]: 15.68 ± 0.8 mmol/L
Glucose tolerance test, plasma glucose, 2 hours [5]: 11.00 ± 0.8 mmol/L
Glucose tolerance test, plasma glucose, 3 hours [5]: 8.33 ± 0.64 mmol/L
expression of total glut4 in liver, muscles, adipocytes (in words) [6]: significantly increase
glut4 expression, adipocyte, fold changes compared with control level [6]: 2.7 ± 1.16 fold
glut4 expression, liver, fold changes compared with control level [6]: 3.77 ± 3.15 fold
glut4 expression, muscle, fold changes compared with control level [6]: 1.5 ± 0.74 fold

From patent publication US8188151B2, “Methods for treating diabetes” (Omega Bio-Pharma (I.P.3) Limited, priority 2003, dated 2012)
